# Measurements as given in article PMC3706879, “The neurotrophic compound J147 reverses cognitive impairment in aged Alzheimer's disease mice” (Alzheimer's Research & Therapy, 2013).
# “Also recorded” adds a separate entry of the source.
# Legend:
# MDRI-MDCK = conditions: MDCK-MDR1
# neuroprotection assays = system: neuroprotection assays; set-up: method as in PMID 22194796; conditions: cited from earlier work
# huAPP/PS1 mice [1] = assay: elevated plus maze in aged huAPP/PS1 mice; format: in vivo; conditions: 200 ppm in food for three months
# Experimental: (§1) The APPswe/PS1ΔE9 transgenic mice have been previously characterized. The line 85 mice carry two transgenes, the mouse/human chimeric APP/Swe, linked to Swedish FAD and human PS1ΔE9. At 20 months of age both male and female transgenic mice were fed a high fat diet (Harlan Tekland, Madison, WI, USA) with and without J147 (200 ppm, 10 mg/kg/day). Treatment continued for three months and was followed by behavior testing and sacrifice of mice for tissue harvesting. […] (Data not shown).
# The elevated plus maze analyzes the anxiety response of mice. This test relies upon the tendency of mice to have a fear of heights and to navigate towards dark enclosed spaces and remain there. Our maze is made of gray plastic and consists of four arms (two open without walls and two enclosed by 15.25 cm high walls) 30 cm long and 5 cm wide in the shape of a plus sign. The elevated plus maze is placed close to the center of the room, and has similar levels of illumination on both open and closed arms. A video-tracking system (Noldus EthoVision) is used to automatically collect behavioral data. […] Mice were then tested in the maze for a five-minute period while the software tracked and recorded the behavior of the mice. The anxiety of mice was measured by comparing the time spent in the open arms to time spent in the closed arms. […]
# huAPP/PS1 mice [2] = assay: two-day water maze in aged huAPP/PS1 mice; format: in vivo; conditions: 200 ppm in food for three months, vs AD control
# Experimental: as §1
# Spatial memory was determined using the two-day water maze in 23-month-old huAPPswe/PS1 transgenic mice fed J147 at 200 ppm in food for the previous three months. The protocol was adapted from a publication by Gulinello and colleagues. Water temperature remained at 27°C throughout the experiment. The goal platform was positioned 45 cm from the outside wall in the north-west quadrant of the maze for all groups and all trials. Day 1 of the two-day water maze procedure involved training the mice to find the platform using cues located around the pool within a 180 s time frame. […] The time it took each mouse to find the hidden platform was measured as escape latency. […] All trials were recorded using the EthoVision Software and statistics were computed using GraphPad Instat software (GraphPad Software, San Diego, CA, USA).
# [3] = system: BACE, APP, NGF, BDNF, Homer-1, Egr3, phosphorylated CREB; assay: Western blotting of hippocampal or entorhinal cortex tissue of aged huAPP/PS1 mice; format: in vivo
# Experimental: as §1
# Hippocampal and entorhinal cortex tissue samples were homogenized in 10 volumes of RIPA lysis buffer (50 mM Tris, pH 7.5, 150 mM NaCl, 0.1% sodium dodecyl sulfate and 0.5% deoxycholate, and 1% NP40) containing a cocktail of protease and phosphatase inhibitors ([…] each of pepstatin A, aprotinin, phosphoramidon, and leupeptin; 0.5 mM 4-(2-aminoethyl) benzenesulfonyl fluoride hydrochloride; 1 mM EGTA; 5 mM fenvalerate; and 5 mM cantharidin). Samples were sonicated (2 × 10 s) and centrifuged at 100,000 × g for 60 minutes at 4°C. Protein concentrations in the cell extracts were determined using the BCA protein assay (Pierce supplied by Thermo Fisher Scientific, Rockford, IL, USA). Equal amounts of protein were solubilized in 2.5x SDS-sample buffer, separated on 12% SDS-polyacrylamide gels, transferred to Immobulin P and immunoblotted with the antibodies indicated in the Materials section. For Western blots, protein levels were normalized to actin levels. An unpaired t test was performed to compare between two groups at a single time point. When comparing multiple groups, one-way ANOVA followed by a Tukey's post hoc test was used. All statistical analysis was conducted using GraphPad Instat software.
# mice [4] = conditions: mouse, in vivo
# hERG = hERG (Homo sapiens, UniProt Q12809)
# Sequence of hERG (Q12809 whole entry): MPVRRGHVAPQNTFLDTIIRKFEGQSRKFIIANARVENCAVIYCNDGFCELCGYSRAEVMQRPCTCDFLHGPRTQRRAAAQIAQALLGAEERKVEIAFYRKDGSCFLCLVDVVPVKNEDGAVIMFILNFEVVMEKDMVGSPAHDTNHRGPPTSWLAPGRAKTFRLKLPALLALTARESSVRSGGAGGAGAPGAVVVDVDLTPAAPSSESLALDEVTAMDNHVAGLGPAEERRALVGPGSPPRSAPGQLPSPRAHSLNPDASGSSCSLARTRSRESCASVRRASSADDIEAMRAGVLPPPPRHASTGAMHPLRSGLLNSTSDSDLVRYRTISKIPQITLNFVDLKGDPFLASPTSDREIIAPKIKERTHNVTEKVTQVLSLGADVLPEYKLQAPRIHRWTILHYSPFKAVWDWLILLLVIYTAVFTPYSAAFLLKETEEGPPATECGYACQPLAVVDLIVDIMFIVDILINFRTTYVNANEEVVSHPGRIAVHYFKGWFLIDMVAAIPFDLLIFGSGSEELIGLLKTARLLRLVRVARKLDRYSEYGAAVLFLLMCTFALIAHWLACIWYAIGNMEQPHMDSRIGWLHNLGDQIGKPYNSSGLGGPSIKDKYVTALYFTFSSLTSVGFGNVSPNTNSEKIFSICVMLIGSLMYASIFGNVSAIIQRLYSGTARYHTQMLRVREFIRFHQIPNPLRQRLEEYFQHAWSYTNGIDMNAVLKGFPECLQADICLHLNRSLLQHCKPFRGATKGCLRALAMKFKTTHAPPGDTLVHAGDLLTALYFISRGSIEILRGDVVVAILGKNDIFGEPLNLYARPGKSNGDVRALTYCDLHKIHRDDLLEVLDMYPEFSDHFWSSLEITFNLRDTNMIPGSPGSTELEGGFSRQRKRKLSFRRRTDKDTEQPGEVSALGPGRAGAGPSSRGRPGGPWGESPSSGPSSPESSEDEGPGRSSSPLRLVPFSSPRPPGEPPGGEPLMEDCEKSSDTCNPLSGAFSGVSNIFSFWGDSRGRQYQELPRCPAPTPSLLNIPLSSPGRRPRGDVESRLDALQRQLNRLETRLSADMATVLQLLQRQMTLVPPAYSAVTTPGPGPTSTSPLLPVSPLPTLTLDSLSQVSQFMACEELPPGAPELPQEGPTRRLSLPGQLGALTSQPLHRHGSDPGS
# dopamine transporter = dopamine transporter (Homo sapiens, UniProt Q01959); assay: dopamine transporter assay (MDS Pharma Services); format: binding
# Sequence of dopamine transporter (Q01959 whole entry): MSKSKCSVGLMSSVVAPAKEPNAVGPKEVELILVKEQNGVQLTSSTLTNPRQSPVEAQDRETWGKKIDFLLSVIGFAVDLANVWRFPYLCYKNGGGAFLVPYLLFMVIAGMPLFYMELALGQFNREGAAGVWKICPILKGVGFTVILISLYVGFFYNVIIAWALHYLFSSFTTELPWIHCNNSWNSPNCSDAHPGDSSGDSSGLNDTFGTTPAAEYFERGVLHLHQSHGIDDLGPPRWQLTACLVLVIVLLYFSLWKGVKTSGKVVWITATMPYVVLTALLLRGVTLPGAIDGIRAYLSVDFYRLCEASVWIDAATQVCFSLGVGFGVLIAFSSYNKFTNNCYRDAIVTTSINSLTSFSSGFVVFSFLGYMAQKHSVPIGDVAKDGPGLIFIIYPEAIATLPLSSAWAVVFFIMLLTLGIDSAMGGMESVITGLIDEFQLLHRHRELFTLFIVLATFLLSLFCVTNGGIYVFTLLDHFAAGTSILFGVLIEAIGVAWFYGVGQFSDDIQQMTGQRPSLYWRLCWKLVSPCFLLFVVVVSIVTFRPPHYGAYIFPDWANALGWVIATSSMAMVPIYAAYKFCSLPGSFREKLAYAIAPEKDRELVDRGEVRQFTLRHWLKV
# Experimental: All screening was done at 10 μM J147 by various contract research organizations (CROs), including MDS Pharma Services (King of Prussia, PA, USA), Ricerca, now Panlabs (Concord, OH, USA), Ambit (La Jolla, CA, USA), Caliper (Hopkinton, MA, USA) and NovaScreen Biosciences (Hanover, MD, USA) by standard protocols described in their catalogs.
# APP/swePS1ΔE9 mice = system: APP/swePS1ΔE9 mice; set-up: method as in PMID 22194796; conditions: cited from earlier work
# mice [5] = assay: acute toxicity in mice (Absorption Systems); format: in vivo; conditions: 2 g/kg, oral, maximum testable dose
# [6] = body weights and food consumption of aged APPswe/PS1ΔE9 mice; format: in vivo; conditions: 20-month-old APPswe/PS1ΔE9 mice, 200 ppm (10 mg/kg/day) in food, three months, measured weekly
# Experimental: as §1
# [7] = hippocampus, vs control huAPP/PS1 mice
smiles,measurement,setting,value
"COc1cccc(/C=N/N(C(=O)C(F)(F)F)c2ccc(C)cc2C)c1 [J147, (E)-N-(2,4-dimethylphenyl)-2,2,2-trifluoro-N'-(3methoxybenzyli-dene) acetohydrazide]",MDRI-MDCK brain transport rates classification (BBB penetration),MDRI-MDCK,High
same,penetration in the Caco-2 assay,Caco-2,moderate and symmetrical penetration
same,EC50,neuroprotection assays,< 100 nM
same,disinhibition phenotype (time in the open arm),huAPP/PS1 mice [1],completely rescued
same,"spatial navigational memory (escape latency, hidden platform Day 2)",huAPP/PS1 mice [2],significantly improved the spatial navigational memory
same,protein level of β-secretase (BACE),"[3]; RIPA soluble fraction, hippocampus, vs untreated AD mice",significantly reduced
same,phosphorylated CREB,[3]; entorhinal cortex,significantly increased
same,mature BDNF protein level,[3]; hippocampus,increase
same,proBDNF protein level,[3]; hippocampus,increase
same,ratio of pro- to mature BDNF,[3]; hippocampus,decreased
same,ratio of proNGF to mature NGF,[3]; hippocampus,decreased significantly
same,Egr3 level,"[3]; hippocampus, aged AD mice",significantly increased
same,Homer-1 levels,"[3]; hippocampus, aged AD mice",significantly increased
same,mature NGF level,[3]; [7],increases
same,proNGF level,[3]; [7],increases
same,APP protein levels,"[3]; soluble fractions of hippocampus, vs control AD mice",significantly increased
same,addiction,mice [4],no addiction
same,hERG assay,hERG,negative
same,"inhibition, dopamine transporter",dopamine transporter; 10 μM J147,greater than 60%
same,EC50,"dopamine transporter; dose response, re-assay after screening",649 nM
same,loss of synaptic proteins and cognitive decline,APP/swePS1ΔE9 mice; administered to three-month-old APP/swePS1ΔE9 mice for seven months,prevents the loss of synaptic proteins and cognitive decline
same,levels of BDNF in the hippocampus,APP/swePS1ΔE9 mice; huAPP/PS1 transgenic mice,increases the levels of BDNF
same,acute toxicity,mice [5],no oral toxicity; also recorded: negative results
same,mouse body weights and food consumption,[6],no significant differences between the groups
